target: Factor IXa (Homo sapiens, UniProt P00740); assay: Determination of inhibitory activity against Factor IXa (cleavage of fluorescent peptide substrate); type: biochemical; conditions: cleavage of fluorescent peptide CH3SO2-D-CHG-Gly-Arg-AFC, release of AFC; read-out: FIXa IC50
Method in brief: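 Factor IXa activity followed via cleavage of CH3SO2-D-CHG-Gly-Arg-AFC, releasing AFC. Fluorescence read at excitation 405 nm, emission 510 nm.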

Chain of Factor IXa (P00740 227-461 limits assumed): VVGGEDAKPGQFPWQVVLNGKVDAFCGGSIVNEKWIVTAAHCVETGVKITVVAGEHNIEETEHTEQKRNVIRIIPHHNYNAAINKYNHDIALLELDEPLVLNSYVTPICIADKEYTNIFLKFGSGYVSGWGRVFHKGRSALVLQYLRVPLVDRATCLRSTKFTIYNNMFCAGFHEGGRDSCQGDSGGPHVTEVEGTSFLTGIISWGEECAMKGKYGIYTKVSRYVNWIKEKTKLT
Chain of Factor IXa (P00740 47-191 partner limits assumed): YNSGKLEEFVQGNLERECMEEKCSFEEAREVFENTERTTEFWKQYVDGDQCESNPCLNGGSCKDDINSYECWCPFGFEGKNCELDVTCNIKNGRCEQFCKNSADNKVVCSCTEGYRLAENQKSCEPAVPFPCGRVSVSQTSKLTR

IC50 [nM]	Compound
129	C[C@](O)(C(=O)Nc1cc(Cl)c2c(N)noc2c1)[C@H]1OCCN(c2ccn(-c3ccnnc3)n2)C1=O [Example 122, (R)—N-(3-amino-4-chlorobenzo[d]isoxazol-6-yl)-2-hydroxy-2-((R)-3-oxo-4-(1-(pyridazin-4-yl)-1H-pyrazol-3-yl)morpholin-2-yl)propanamide]
21.8	C[C@](O)(C(=O)Nc1cc(Cl)c2c(N)noc2c1)[C@H]1OCCN(c2nn(-c3ccnnc3)cc2F)C1=O [Example 123, (R)—N-(3-amino-4-chlorobenzo[d]isoxazol-6-yl)-2-((R)-4-(4-fluoro-1-(pyridazin-4-yl)-1H-pyrazol-3-yl)-3-oxomorpholin-2-yl)-2-hydroxypropanamide]
158	C[C@](O)(C(=O)Nc1cc(Cl)c2c(N)noc2c1)[C@H]1OCCN(c2nn(-c3cnnc(C#N)c3)cc2F)C1=O [Example 124, (R)—N-(3-amino-4-chlorobenzo[d]isoxazol-6-yl)-2-((R)-4-(1-(6-cyanopyridazin-4-yl)-4-fluoro-1H-pyrazol-3-yl)-3-oxomorpholin-2-yl)-2-hydroxypropanamide]
45	COc1cc(-n2cc(F)c(N3CCO[C@H]([C@@](C)(O)C(=O)Nc4cc(Cl)c5c(N)noc5c4)C3=O)n2)cnn1 [Example 125, (R)—N-(3-amino-4-chlorobenzo[d]isoxazol-6-yl)-2-((R)-4-(4-fluoro-1-(6-methoxypyridazin-4-yl)-1H-pyrazol-3-yl)-3-oxomorpholin-2-yl)-2-hydroxypropanamide]
31.6	C[C@](O)(C(=O)Nc1cc(Cl)c2c(N)noc2c1)[C@H]1OCCN(c2nn(-c3cnnc(C(F)(F)F)c3)cc2F)C1=O [Example 126, (R)—N-(3-amino-4-chlorobenzo[d]isoxazol-6-yl)-2-((R)-4-(4-fluoro-1-(6-(trifluoromethyl)pyridazin-4-yl)-1H-pyrazol-3-yl)-3-oxomorpholin-2-yl)-2-hydroxypropanamide]
746	C[C@]1([C@@H](O)C(=O)Nc2cc(Cl)c3c(N)noc3c2)OCCN(c2ccn(-c3ccc(S(C)(=O)=O)cc3)n2)C1=O [Example 127, (R)—N-(3-amino-4-chlorobenzo[d]isoxazol-6-yl)-2-hydroxy-2-((R)-2-methyl-4-(1-(4-(methylsulfonyl)phenyl)-1H-pyrazol-3-yl)-3-oxomorpholin-2-yl)acetamide]
224	C[C@]1([C@@H](O)C(=O)Nc2cc(Cl)c3c(N)noc3c2)OCCN(c2ccn(-c3ccncc3)n2)C1=O [Example 128, (R)—N-(3-amino-4-chlorobenzo[d]isoxazol-6-yl)-2-hydroxy-2-((R)-2-methyl-3-oxo-4-(1-(pyridin-4-yl)-1H-pyrazol-3-yl)morpholin-2-yl)acetamide]
49.8	C[C@](O)(C(=O)Nc1cc(F)c2c(N)noc2c1)[C@H]1OCCN(c2ccn(-c3ccncc3)n2)C1=O [Example 129, (R)—N-(3-amino-4-fluorobenzo[d]isoxazol-6-yl)-2-hydroxy-2-((R)-3-oxo-4-(1-(pyridin-4-yl)-1H-pyrazol-3-yl)morpholin-2-yl)propanamide]
211	Cc1cc(-n2ccc(N3CCO[C@H]([C@@](C)(O)C(=O)Nc4cc(F)c5c(N)noc5c4)C3=O)n2)ccn1 [Example 130, (R)—N-(3-amino-4-fluorobenzo[d]isoxazol-6-yl)-2-hydroxy-2-((R)-4-(1-(2-methylpyridin-4-yl)-1H-pyrazol-3-yl)-3-oxomorpholin-2-yl)propanamide]
95.2	C[C@](O)(C(=O)Nc1cc(F)c2c(N)noc2c1)[C@H]1OCCN(c2ccn(-c3ccnc(C(F)(F)F)c3)n2)C1=O [Example 131, (R)—N-(3-amino-4-fluorobenzo[d]isoxazol-6-yl)-2-hydroxy-2-((R)-3-oxo-4-(1-(2-(trifluoromethyl)pyridin-4-yl)-1H-pyrazol-3-yl)morpholin-2-yl)propanamide]
117	C[C@](O)(C(=O)Nc1cc(F)c2c(N)noc2c1)[C@H]1OCCN(c2ccn(-c3ccnc(C#N)c3)n2)C1=O [Example 132, (R)—N-(3-amino-4-fluorobenzo[d]isoxazol-6-yl)-2-((R)-4-(1-(2-cyanopyridin-4-yl)-1H-pyrazol-3-yl)-3-oxomorpholin-2-yl)-2-hydroxypropanamide]
275	COc1cc(-n2ccc(N3CCO[C@H]([C@@](C)(O)C(=O)Nc4cc(F)c5c(N)noc5c4)C3=O)n2)ccn1 [Example 133, (R)—N-(3-amino-4-fluorobenzo[d]isoxazol-6-yl)-2-hydroxy-2-((R)-4-(1-(2-methoxypyridin-4-yl)-1H-pyrazol-3-yl)-3-oxomorpholin-2-yl)propanamide]
55.2	C[C@](O)(C(=O)Nc1cc(F)c2c(N)noc2c1)[C@H]1OCCN(c2nn(-c3ccncc3)cc2F)C1=O [Example 134, (R)—N-(3-amino-4-fluorobenzo[d]isoxazol-6-yl)-2-((R)-4-(4-fluoro-1-(pyridin-4-yl)-1H-pyrazol-3-yl)-3-oxomorpholin-2-yl)-2-hydroxypropanamide]
10.2	C[C@](O)(C(=O)Nc1cc(F)c2c(N)noc2c1)[C@H]1OCCN(c2ccn(-c3ccnnc3)n2)C1=O [Example 135, (R)—N-(3-amino-4-fluorobenzo[d]isoxazol-6-yl)-2-hydroxy-2-((R)-3-oxo-4-(1-(pyridazin-4-yl)-1H-pyrazol-3-yl)morpholin-2-yl)propanamide]
53.2	C[C@](O)(C(=O)Nc1cc(F)c2c(N)noc2c1)[C@H]1OCCN(c2ccn(-c3cnnc(N4CCC4)c3)n2)C1=O [Example 136, (R)—N-(3-amino-4-fluorobenzo[d]isoxazol-6-yl)-2-((R)-4-(1-(6-(azetidin-1-yl)pyridazin-4-yl)-1H-pyrazol-3-yl)-3-oxomorpholin-2-yl)-2-hydroxypropanamide]
190	CC(C)Oc1cc(-n2ccc(N3CCO[C@H]([C@@](C)(O)C(=O)Nc4cc(F)c5c(N)noc5c4)C3=O)n2)cnn1 [Example 137, (R)—N-(3-amino-4-fluorobenzo[d]isoxazol-6-yl)-2-hydroxy-2-((R)-4-(1-(6-isopropoxypyridazin-4-yl)-1H-pyrazol-3-yl)-3-oxomorpholin-2-yl)propanamide]
7.11	C[C@](O)(C(=O)Nc1cc(F)c2c(N)noc2c1)[C@H]1OCCN(c2ccn(-c3cnnc(C#N)c3)n2)C1=O [Example 138, (R)—N-(3-amino-4-fluorobenzo[d]isoxazol-6-yl)-2-((R)-4-(1-(6-cyanopyridazin-4-yl)-1H-pyrazol-3-yl)-3-oxomorpholin-2-yl)-2-hydroxypropanamide]
14	COc1cc(-n2ccc(N3CCO[C@H]([C@@](C)(O)C(=O)Nc4cc(F)c5c(N)noc5c4)C3=O)n2)cnn1 [Example 139, (R)—N-(3-amino-4-fluorobenzo[d]isoxazol-6-yl)-2-hydroxy-2-((R)-4-(1-(6-methoxypyridazin-4-yl)-1H-pyrazol-3-yl)-3-oxomorpholin-2-yl)propanamide]
5.61	C[C@](O)(C(=O)Nc1cc(F)c2c(N)noc2c1)[C@H]1OCCN(c2nn(-c3ccnnc3)cc2F)C1=O [Example 140, (R)—N-(3-amino-4-fluorobenzo[d]isoxazol-6-yl)-2-((R)-4-(4-fluoro-1-(pyridazin-4-yl)-1H-pyrazol-3-yl)-3-oxomorpholin-2-yl)-2-hydroxypropanamide]

From patent US9708308B2, “Factor IXa inhibitors” (Merck Sharp & Dohme Corp., priority 2012, dated 2017)
